According to patent US7838218B2, “Light emitting probes” (priority 2003, dated 2010):

Molecular target: T1, rabbit serum albumin (RSA) (Oryctolagus cuniculus, UniProt P49065)
T1 construct: purchased Sigma (Sigma-Aldrich Chemical Co.)
Assay: Fluorescence emission of probes with rabbit serum albumin as binder
Format: binding
Details: pyrene butyric acid excited at 345 nm, FITC at 490 nm; PBS
Protocol: Fluorescence measurements were made on a Hitachi F-2500 fluorescence spectrophotometer with a 1 cm path length cuvette. Spectra were measured at a rate of 1500 nm/min. Excitation wavelength of 345 nm was used for pyrene and 490 nm for FITC.
Lifetimes were measured on modified IBH machine.
Proteins with hydrophobic pockets could be used as binders. […] The binder is not restricted to proteins. […] The excitation wavelength was 345 nm.

T1 sequence (P49065 25-608): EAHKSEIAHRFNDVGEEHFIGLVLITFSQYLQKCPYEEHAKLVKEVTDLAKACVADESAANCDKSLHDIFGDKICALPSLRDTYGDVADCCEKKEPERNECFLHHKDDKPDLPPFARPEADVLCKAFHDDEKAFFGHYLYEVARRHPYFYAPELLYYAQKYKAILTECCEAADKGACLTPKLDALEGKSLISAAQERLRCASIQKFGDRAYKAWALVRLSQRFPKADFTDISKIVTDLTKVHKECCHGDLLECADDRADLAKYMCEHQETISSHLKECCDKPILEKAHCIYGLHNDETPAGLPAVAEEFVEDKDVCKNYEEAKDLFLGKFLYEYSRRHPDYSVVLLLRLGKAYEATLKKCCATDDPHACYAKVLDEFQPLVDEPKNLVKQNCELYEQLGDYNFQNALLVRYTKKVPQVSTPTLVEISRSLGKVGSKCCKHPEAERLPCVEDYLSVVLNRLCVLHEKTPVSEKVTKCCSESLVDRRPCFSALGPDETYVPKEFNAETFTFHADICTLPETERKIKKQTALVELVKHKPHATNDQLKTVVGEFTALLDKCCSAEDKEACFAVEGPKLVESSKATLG

## O=C1OC2(c3ccc(O)cc3Oc3cc(O)ccc32)c2ccc(N=C=S)cc21 [FITC, fluorescein isothiocynate]
  effect of RSA on own emission spectrum of the free fluorophore: appears not to change

## c1cc2ccc3cccc4ccc(c1)c2c34 [pyrene butyric acid]
  effect of RSA on own emission spectrum of the free fluorophore: increasing the fluorescence intensity
